Where two headings read alike, the source gives them in different places.
Key:
[1] = biological target: T1, PKC epsilon (Homo sapiens, UniProt Q02156); assay: Biochemical assay for PKC epsilon (fluorescence polarization, Protein Kinase C Assay Kit, Red); conditions: read-out: IC50 μM PKCε
T1 construct: purchased Invitrogen P2282
T1 sequence (Q02156 1-737): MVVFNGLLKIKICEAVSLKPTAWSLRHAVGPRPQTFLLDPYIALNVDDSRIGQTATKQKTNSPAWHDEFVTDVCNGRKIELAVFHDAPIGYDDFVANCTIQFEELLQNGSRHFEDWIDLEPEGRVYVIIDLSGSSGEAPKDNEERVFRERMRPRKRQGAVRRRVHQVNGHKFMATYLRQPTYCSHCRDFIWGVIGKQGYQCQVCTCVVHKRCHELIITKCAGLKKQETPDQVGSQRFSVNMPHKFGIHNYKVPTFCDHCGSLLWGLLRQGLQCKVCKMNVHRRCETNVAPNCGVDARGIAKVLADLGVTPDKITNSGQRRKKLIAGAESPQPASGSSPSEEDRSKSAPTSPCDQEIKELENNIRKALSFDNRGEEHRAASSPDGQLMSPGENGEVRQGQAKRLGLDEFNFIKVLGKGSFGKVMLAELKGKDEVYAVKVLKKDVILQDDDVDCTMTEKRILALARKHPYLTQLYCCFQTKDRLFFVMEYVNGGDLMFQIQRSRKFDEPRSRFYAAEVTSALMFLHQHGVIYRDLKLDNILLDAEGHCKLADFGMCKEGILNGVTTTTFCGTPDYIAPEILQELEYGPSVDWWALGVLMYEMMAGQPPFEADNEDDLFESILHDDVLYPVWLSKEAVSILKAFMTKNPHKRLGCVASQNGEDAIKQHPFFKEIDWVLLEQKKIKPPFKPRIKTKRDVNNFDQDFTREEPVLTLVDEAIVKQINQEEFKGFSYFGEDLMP
How it was run: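 PKC epsilon at 10 ng/ml final was preincubated 30 min at room temperature with compound in HEPES pH 7.4 with DTT and Triton X-100. ATP/protein substrate was then added in buffer with MgCl2 and CaCl2 for 80 min. The reaction was stopped with EDTA, phosphorylation was detected by fluorescence polarization with rhodamine tracer and anti-phosphoserine antibody, and IC50 values came from curve fits.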

[2] = biological target: T2, human ROCKα/ROCKII mix (Homo sapiens, UniProt O75116); assay: Biochemical assay for ROCK (fluorescence polarization, ROCK IMAP Kit)
T2 construct: purchased Upstate Biotechnology 14-451
T2 sequence (O75116 11-552 limits assumed): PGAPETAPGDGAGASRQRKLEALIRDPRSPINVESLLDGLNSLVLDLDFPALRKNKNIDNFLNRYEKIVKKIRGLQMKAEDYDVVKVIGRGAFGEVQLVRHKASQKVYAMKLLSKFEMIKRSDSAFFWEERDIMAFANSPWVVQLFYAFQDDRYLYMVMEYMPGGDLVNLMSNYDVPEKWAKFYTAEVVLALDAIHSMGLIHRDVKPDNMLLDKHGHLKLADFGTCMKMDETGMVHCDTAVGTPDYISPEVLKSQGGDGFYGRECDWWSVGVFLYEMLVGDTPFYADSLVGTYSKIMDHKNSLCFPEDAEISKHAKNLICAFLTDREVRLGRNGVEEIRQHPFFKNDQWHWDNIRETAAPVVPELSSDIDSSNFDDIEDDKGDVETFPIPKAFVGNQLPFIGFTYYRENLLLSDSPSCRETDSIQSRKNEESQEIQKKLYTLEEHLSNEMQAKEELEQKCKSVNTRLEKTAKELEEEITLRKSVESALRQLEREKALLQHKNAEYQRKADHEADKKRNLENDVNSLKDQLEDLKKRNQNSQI

[3] = compounds of Formula XIV, Table 3
[4] = Table 2, compounds of Formula XIII

| SMILES | IC50 [1] [µM] | IC50 [2] [µM] | also measured |
| --- | --- | --- | --- |
| NC(CC(=O)NC1CCCc2ccccc21)c1ccc(C(=O)Nc2ccncc2)cc1 (single isomer, unassigned) [Compound 222] | – | – | IC50 [1, 3]: 5 to 50 µM; IC50 [2, 3]: 0.05 to 0.5 µM |
| NC(CNC(=O)NC1CCCCC1)c1ccc(C(=O)Nc2ccncc2)cc1 (stereo not shown) [Compound 5, 4-[1-amino-2-(3-cyclohexyl-ureido)-ethyl]-N-pyridin-4-yl-benzamide] | 5 to 50 | 0.5 to 5 | – |
| CCOC(=O)CCNC(=O)NCC(N)c1ccc(C(=O)Nc2ccncc2)cc1 (stereo not shown) [Compound 6, 3-(3-{2-amino-2-[4-(pyridin-4-ylcarbamoyl)-phenyl]-ethyl}-ureido)-propionic acid ethyl ester] | 5 to 50 | 0.5 to 5 | – |
| Cc1ccc(CNC(=O)NCC(N)c2ccc(C(=O)Nc3ccncc3)cc2)cc1 (stereo not shown) [Compound 8, 4-{1-amino-2-[3-(4-methyl-benzyl)-ureido]-ethyl}-N-pyridin-4-yl-benzamide] | 0.5 to 5 | 0.05 to 0.5 | – |
| NC(CNC(=S)Nc1ccccc1)c1ccc(C(=O)Nc2ccncc2)cc1 (stereo not shown) [Compound 11, 4-[1-amino-2-(3-phenyl-thioureido)-ethyl]-N-pyridin-4-yl-benzamide] | 0.5 to 5 | 0.05 to 0.5 | – |
| COc1ccc(NC(=S)NCC(N)c2ccc(C(=O)Nc3ccncc3)cc2)cc1 (stereo not shown) [Compound 14, 4-{1-amino-2-[3-(4-methoxy-phenyl)-thioureido]-ethyl}-N-pyridin-4-yl-benzamide] | 0.5 to 5 | 0.5 to 5 | – |
| NC(CNC(=S)Nc1ccc(OC(F)(F)F)cc1)c1ccc(C(=O)Nc2ccncc2)cc1 (stereo not shown) [Compound 15, 4-{1-amino-2-[3-(4-trifluoromethoxy-phenyl)-thioureido]-ethyl}-N-pyridin-4-yl-benzamide] | 5 to 50 | 0.5 to 5 | – |
| NC(CNC(=S)Nc1ccc(C(F)(F)F)cc1)c1ccc(C(=O)Nc2ccncc2)cc1 (stereo not shown) [Compound 16, 4-{1-amino-2-[3-(4-trifluoromethyl-phenyl)-thioureido]-ethyl}-N-pyridin-4-yl-benzamide] | 0.5 to 5 | 0.5 to 5 | – |
| CC(C)(C)c1ccc(NC(=S)NCC(N)c2ccc(C(=O)Nc3ccncc3)cc2)cc1 (stereo not shown) [Compound 18, 4-{1-amino-2-[3-(4-tert-butyl-phenyl)-thioureido]-ethyl}-N-pyridin-4-yl-benzamide] | 5 to 50 | 0.5 to 5 | – |
| NC(CNC(=O)Nc1ccccc1F)c1ccc(C(=O)Nc2ccncc2)cc1 (stereo not shown) [Compound 20, 4-{1-amino-2-[3-(2-fluoro-phenyl)-ureido]-ethyl}-N-pyridin-4-yl-benzamide] | 0.5 to 5 | 0.05 to 0.5 | – |
| CN(C)c1ccc(NC(=O)NCC(N)c2ccc(C(=O)Nc3ccncc3)cc2)cc1 (stereo not shown) [Compound 21, 4-{1-amino-2-[3-(4-dimethylamino-phenyl)-ureido]-ethyl}-N-pyridin-4-yl-benzamide] | 0.5 to 5 | 0.05 to 0.5 | – |
| NC(CNC(=O)Nc1ccc(-c2ccccc2)cc1)c1ccc(C(=O)Nc2ccncc2)cc1 (stereo not shown) [Compound 22, 4-[1-amino-2-(3-biphenyl-4-yl-ureido)-ethyl]-N-pyridin-4-yl-benzamide] | 0.5 to 5 | 0.5 to 5 | – |
| NC(CNC(=O)Nc1ccc2ccccc2c1)c1ccc(C(=O)Nc2ccncc2)cc1 (stereo not shown) [Compound 23, 4-[1-amino-2-(3-naphtalen-2-yl-ureido)-ethyl]-N-pyridin-4-yl-benzamide] | 0.5 to 5 | 0.05 to 0.5 | – |
| CC(C)(C)c1ccc(NC(=O)NCC(N)c2ccc(C(=O)Nc3ccncc3)cc2)cc1 (stereo not shown) [Compound 24, 4-{1-amino-2-[3-(4-tert-butyl-phenyl)-ureido]-ethyl}-N-pyridin-4-yl-benzamide] | 5 to 50 | 0.5 to 5 | – |
| Cc1ccccc1NC(=O)NCC(N)c1ccc(C(=O)Nc2ccncc2)cc1 (stereo not shown) [Compound 25, 4-[1-amino-2-(3-o-tolyl-ureido)-ethyl]-N-pyridin-4-yl-benzamide] | 0.5 to 5 | 0.05 to 0.5 | – |
| NC(CNC(=O)Nc1cccc2ccccc12)c1ccc(C(=O)Nc2ccncc2)cc1 (stereo not shown) [Compound 28, 4-[1-amino-2-(3-naphtalen-1-yl-ureido)-ethyl]-N-pyridin-4-yl-benzamide] | 0.5 to 5 | 0.05 to 0.5 | – |
| COc1cccc(NC(=O)NCC(N)c2ccc(C(=O)Nc3ccncc3)cc2)c1 (stereo not shown) [Compound 29, 4-{1-amino-2-[3-(3-methoxy-phenyl)-ureido]-ethyl}-N-pyridin-4-yl-benzamide] | 0.5 to 5 | 0.05 to 0.5 | – |
| COc1ccc(NC(=O)NCC(N)c2ccc(C(=O)Nc3ccncc3)cc2)cc1 (stereo not shown) [Compound 30, 4-{1-amino-2-[3-(4-methoxy-phenyl)-ureido]-ethyl}-N-pyridin-4-yl-benzamide] | 0.5 to 5 | 0.05 to 0.5 | – |
| CC(=O)NCC(N)c1ccc(C(=O)Nc2ccncc2)cc1 (stereo not shown) [Compound 31, 4-(2-Acetylamino-1-amino-ethyl)-N-pyridin-4-yl-benzamide] | – | – | IC50 [1, 4]: 5 to 50 µM; IC50 [2, 4]: 0.5 to 5 µM |
| CCCC(=O)NCC(N)c1ccc(C(=O)Nc2ccncc2)cc1 (stereo not shown) [Compound 32, 4-(1-Amino-2-butyrylamino-ethyl)-N-pyridin-4-y-benzamide] | – | – | IC50 [1, 4]: 0.5 to 5 µM; IC50 [2, 4]: 0.5 to 5 µM |

The next lines start with results.

| IC50 [1] [µM] | IC50 [2] [µM] | SMILES | also measured |
| --- | --- | --- | --- |
| 0.5 to 5 | 0.5 to 5 | CCNC(=S)NCC(N)c1ccc(C(=O)Nc2ccncc2)cc1 (stereo not shown) [Compound 1, 4-[1-amino-2-(3-ethyl-thioureido)-ethyl]-N-pyridin-4-yl-benzamide] | – |
| 0.5 to 5 | 0.5 to 5 | CCCCNC(=O)NCC(N)c1ccc(C(=O)Nc2ccncc2)cc1 (stereo not shown) [Compound 2, 4-[1-amino-2-(3-butyl-ureido)-ethyl]-N-pyridin-4-yl-benzamide] | – |
| 0.5 to 5 | 0.5 to 5 | CC(C)(C)NC(=O)NCC(N)c1ccc(C(=O)Nc2ccncc2)cc1 (stereo not shown) [Compound 3, 4-[1-amino-2-(3-tert-butyl-ureido)-ethyl]-N-pyridin-4-yl-benzamide] | – |
| 0.5 to 5 | 0.5 to 5 | NC(CNC(=O)NC1CCCC1)c1ccc(C(=O)Nc2ccncc2)cc1 (stereo not shown) [Compound 4, 4-[1-amino-2-(3-cyclopentyl-ureido)-ethyl]-N-pyridin-4-yl-benzamide] | – |
| 0.5 to 5 | 0.05 to 0.5 | NC(CNC(=O)NCc1ccccc1)c1ccc(C(=O)Nc2ccncc2)cc1 (stereo not shown) [Compound 7, 4-[1-amino-2-(3-benzyl-ureido)-ethyl]-N-pyridin-4-yl-benzamide] | – |
| 0.05 to 0.5 | 0.5 to 5 | Cc1ccccc1NC(=S)NCC(N)c1ccc(C(=O)Nc2ccncc2)cc1 (stereo not shown) [Compound 12, 4-[1-amino-2-(3-o-tolyl-thioureido)-ethyl]-N-pyridin-4-yl-benzamide] | – |
| 0.05 to 0.5 | 0.05 to 0.5 | NC(CNC(=S)Nc1ccc(Cl)cc1)c1ccc(C(=O)Nc2ccncc2)cc1 (stereo not shown) [Compound 13, 4-{1-amino-2-[3-(4-chloro-phenyl)-thioureido]-ethyl}-N-pyridin-4-yl-benzamide] | – |
| 0.05 to 0.5 | 0.05 to 0.5 | NC(CNC(=S)Nc1cccc2ccccc12)c1ccc(C(=O)Nc2ccncc2)cc1 (stereo not shown) [Compound 17, 4-[1-amino-2-(3-naphtalen-1-yl-thioureido)-ethyl]-N-pyridin-4-yl-benzamide] | – |
| 0.05 to 0.5 | 0.05 to 0.5 | Cc1cc(Cl)ccc1NC(=O)NCC(N)c1ccc(C(=O)Nc2ccncc2)cc1 (stereo not shown) [Compound 26, 4-{1-amino-2-[3-(4-chloro-2-methyl-phenyl)-ureido]-ethyl}-N-pyridin-4-yl-benzamide] | – |
